The test system of one data set is Ishikawa cells. The experiment in a line: Alkaline Phosphatase Assay in Human Endometrial Ishikawa Cells (agonist and antagonist mode). The following applies: number in brackets = number of tests, NA = no detected activity at test concentration; for pEC50: agonist mode; for pIC50: antagonist mode with 10 nM 17β-estradiol. It is filed as cell-based.
For another data set, the system named is MCF-7 cells. As to the kind of experiment: MCF-7 Cell Proliferation Assay (14C-thymidine, agonist and antagonist mode). The format is cell-based. The following applies: number in brackets = number of tests, NA = no detected activity at test concentration.
Another data set deals with T1, hER-β (Homo sapiens, UniProt Q92731).
T1 construct: purchased Panvera
The experiment in a line: Estrogen Receptor β Fluorescence Polarization Assay (binding of Fluormone ES2). The following applies: for IC50: fluorescence polarization binding, Fluormone ES2, number in brackets = No. of determinations, NA = no detected activity at test concentration, read-out: Estrogen Receptor β in μM (No.). An excerpt: This assay monitors binding of a fluorescent analog of estrogen (Fluormone ES2, Panvera) to the estrogen receptor. Plates are read in a fluorometer that can be set to polarization mode. A decrease in […] relative to vehicle control is an indication of binding of a compound to the receptor.
It is crucial to avoid introduction of air bubbles into the reaction in each well of the 96 well plate throughout this procedure. (Bubbles on the surface of the reaction disrupt light flow, affecting the polarization reading.) However, it is also crucial to effectively mix the reaction components upon addition to the well.
On ice, a 2× standard mixture of Assay Buffer (Panvera), 10 nM DTT and 40 nM ES2 was prepared. On ice, a 2× reaction mixture of Assay Buffer (Panvera), and 20 nM hER-β (Panvera) and 40 nM ES2 was also prepared.
Dilutions of test compound were prepared in 30% (v/v) dimethyl sulfoxide/50 mM HEPES, pH 7.5. At this point, the dilutions were 40× the final required concentration.
The standard mixture at 50 μL was then added to each well. The reaction mixture at 48 μL was added to all wells. The compound dilution at 2.5 μL was added to the appropriate wells. The reaction mixtures were mixed using a manual pipette, a roll of aluminum foil adhesive cover was placed on the plate and the plate incubated at room temperature for 1 hour.
On the technique in general: Fluorescence polarisation rises when a labelled molecule tumbles more slowly, as on binding a larger partner.

Data set [1] addresses T2, human estrogen receptor α (Homo sapiens, UniProt P03372).
T2 construct: purchased Panvera
T2 sequence (P03372 1-595): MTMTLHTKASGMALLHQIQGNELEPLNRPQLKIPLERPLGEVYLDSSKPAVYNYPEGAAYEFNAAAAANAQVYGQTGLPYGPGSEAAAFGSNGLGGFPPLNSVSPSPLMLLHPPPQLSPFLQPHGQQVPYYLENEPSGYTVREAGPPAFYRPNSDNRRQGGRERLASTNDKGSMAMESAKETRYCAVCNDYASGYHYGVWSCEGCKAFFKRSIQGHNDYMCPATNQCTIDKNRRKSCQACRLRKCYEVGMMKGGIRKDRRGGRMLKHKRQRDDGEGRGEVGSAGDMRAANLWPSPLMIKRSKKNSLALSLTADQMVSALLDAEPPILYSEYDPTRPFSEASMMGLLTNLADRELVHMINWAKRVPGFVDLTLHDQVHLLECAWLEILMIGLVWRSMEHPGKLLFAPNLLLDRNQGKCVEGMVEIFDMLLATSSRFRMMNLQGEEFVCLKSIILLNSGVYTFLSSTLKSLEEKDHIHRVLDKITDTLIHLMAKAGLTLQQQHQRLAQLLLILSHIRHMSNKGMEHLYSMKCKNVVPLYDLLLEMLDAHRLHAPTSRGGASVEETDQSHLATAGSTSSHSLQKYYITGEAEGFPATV
As to the kind of experiment: Estrogen Receptor α Flash Plate Assay (binding of radiolabeled estrogen). The following applies: for IC50: flash plate binding, 0.5 nM radiolabeled estrogen, number in brackets = No. of determinations, NA = no detected activity at test concentration, read-out: Estrogen Receptor α in μM (No.).

Setting [2] is: Homo sapiens, MCF7, agonist mode.
Setting [3] is: Homo sapiens, MCF7, antagonist mode with 10 nM 17β-estradiol.

The structures appear in SMILES notation. pEC50, pIC50: −log10 of the molar value. Like-named read-outs stand apart in the source and are kept apart here. Bounds are passed on as bounds.

T1 sequence (Q92731 whole entry): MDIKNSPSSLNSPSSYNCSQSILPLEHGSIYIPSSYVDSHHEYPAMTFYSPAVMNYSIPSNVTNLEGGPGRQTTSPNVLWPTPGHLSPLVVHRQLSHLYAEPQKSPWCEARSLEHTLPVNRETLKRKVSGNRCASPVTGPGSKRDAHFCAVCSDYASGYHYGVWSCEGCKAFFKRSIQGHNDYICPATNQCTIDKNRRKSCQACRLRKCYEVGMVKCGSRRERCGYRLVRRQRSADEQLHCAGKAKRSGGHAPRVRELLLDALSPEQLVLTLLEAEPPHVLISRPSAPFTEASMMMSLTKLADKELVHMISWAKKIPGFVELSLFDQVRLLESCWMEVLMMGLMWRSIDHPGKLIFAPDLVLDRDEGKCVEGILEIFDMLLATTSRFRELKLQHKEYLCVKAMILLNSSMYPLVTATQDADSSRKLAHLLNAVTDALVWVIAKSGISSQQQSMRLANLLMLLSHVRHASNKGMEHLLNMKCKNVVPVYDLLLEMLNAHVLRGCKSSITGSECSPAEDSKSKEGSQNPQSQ

Regarding `COc1ccc2c(c1)OCc1c-2c(=O)oc2cc(OC)ccc12` [Compound 2, 2,8-DiMethoxy-11H-chromeno[4,3-c]chromen-5-one], the melting point fell in the range of 200 to 201 °C. In the data set with Ishikawa cells (Homo sapiens), this compound showed a pEC50 of less than 5.00 and a negative logarithm of the IC50 (pIC50) of less than 5.00. Further, the pEC50 in the data set on MCF-7 cells (setting [2]) is less than 5.00. In the data set with MCF-7 cells (setting [3]), the pIC50 was less than 5.00.

`O=c1oc2cc(O)ccc2c2c1-c1ccc(O)cc1OC2` [Compound 1, 2,8-Dihydroxy-11H-chromeno[4,3-c]chromen-5-one] registered a melting point of more than 350 °C. Also, the IC50 on hER-β was 0.061 µM. Besides, the IC50 in data set [1] turned out to be 0.505 µM. In the data set with Ishikawa cells (Homo sapiens), this compound had a negative-log EC50 (pEC50) of 6.89 and a pIC50 of less than 5.00. In addition, in the data set with MCF-7 cells (setting [2]), the negative logarithm of the EC50 (pEC50) is 5.92. The same compound showed a negative-log IC50 (pIC50) with MCF-7 cells (setting [3]) of less than 5.00.

Consider `CC(C)(C)[Si](C)(C)Oc1ccc2c(c1)OCC1=C2C(O)Oc2cc(F)ccc21` (stereo not drawn), for which the melting point lay within 166 to 167 °C.

For `CC(C)(C)[Si](C)(C)Oc1ccc2c(c1)OC(O)C1=C2COc2cc(O[Si](C)(C)C(C)(C)C)ccc21` (stereo not drawn), the melting point lay within 188 to 190 °C.

`Oc1ccc2c(c1)O[C@H](c1ccc(OCCN3CCCCC3)cc1)C1=C2COc2cc(O)ccc21` (stereo in doubt) [Compound 14, 5R*-(−)-[4-(2-Piperidin-1-yl-ethoxy)-phenyl]-5,11-dihydro-chromeno[4,3-c]chromene-2,8-diol]: the figures for the IC50 (on hER-β; in data set [1]) were 0.15 µM and 0.0074 µM, respectively. Moreover, the negative logarithm of the EC50 (pEC50) in the data set with Ishikawa cells and in the data set on MCF-7 cells (agonist mode) was less than 5.00 in each case. Also, the pIC50 was 6.83 in the data set on Ishikawa cells and 5.25 with MCF-7 cells (antagonist mode with 10 nM 17β-estradiol).

With `COc1ccc2c(c1)OC(c1ccc(OCCN3CCCCC3)cc1)C1=C2CCOc2cc(OC)ccc21` (single isomer, unassigned) [Compound 300, 5R*-(+)-1-{2-[4-(2,8-Dimethoxy-11,12-dihydro-5H-6,13-dioxa-benzo[3,4]cyclohepta[1,2-a]naphthalen-5-yl)-phenoxy]-ethyl}-piperidine], the negative logarithm of the IC50 (pIC50) at hER-β was less than 5.00; in data set [1], 7.22; in the data set with Ishikawa cells (Homo sapiens) it was less than 4.00; in the data set on MCF-7 cells (setting [3]), 4.76.

Take `CC(C)(C)C(=O)Oc1ccc2c(c1)OC(C)(c1ccc(OCCCN3CCCCC3)cc1)C1=C2COc2cc(OC(=O)C(C)(C)C)ccc21` (stereo not drawn) [Compound 43, 2,2-Dimethyl-propionic acid 8-(2,2-dimethyl-propionyloxy)-11-methyl-11-[4-(3-piperidin-1-yl-propoxy)-phenyl]-5,11-dihydro-chromeno[4,3-c]chromen-2-yl ester]: the IC50 on hER-β was found to be 0.165 µM; in data set [1] it was 0.62 µM. Besides, the negative logarithm of the EC50 (pEC50) with Ishikawa cells (Homo sapiens) and in the data set with MCF-7 cells (setting [2]) was less than 5.00 each time. Moreover, the pIC50 with Ishikawa cells (Homo sapiens) was 5.80; in the data set on MCF-7 cells (setting [3]), less than 6.00.

With `CCN(CC)CCOc1ccc(C2Oc3cc(O)ccc3C3=C2c2ccc(O)cc2OC3)cc1` (stereo not drawn) [Compound 19, 5-[4-(2-Diethylamino-ethoxy)-phenyl]-5,11-dihydrochromeno[4,3-c]chromene-2,8-diol], the IC50 at hER-β turned out to be 0.099 µM; in data set [1] it was 0.0019 µM. Besides, the negative-log EC50 (pEC50) in the data set on Ishikawa cells (Homo sapiens) and in the data set with MCF-7 cells (setting [2]) was less than 5.00 in each case. For the same compound, the negative-log IC50 (pIC50) in the data set on Ishikawa cells (Homo sapiens) was 6.60; in the data set with MCF-7 cells (setting [3]), 6.15.

`CN(C)CCOc1ccc(C2Oc3cc(O)ccc3C3=C2c2ccc(O)cc2OC3)cc1` (stereo not drawn) [Compound 21, 5-[4-(2-Dimethylamino-ethoxy)-phenyl]-5,11-dihydrochromeno[4,3-c]chromene-2,8-diol]: the IC50 at hER-β is 0.011 µM; in data set [1] it was 0.015 µM. Further, the pEC50 in the data set with Ishikawa cells (Homo sapiens) and in the data set with MCF-7 cells (setting [2]) was less than 5.00 each time. The pIC50 in the data set on Ishikawa cells (Homo sapiens) is 6.08; in the data set on MCF-7 cells (setting [3]), 6.01.

For the compound `CC(C)(C)[Si](C)(C)Oc1ccc2c(c1)OCc1c-2c(=O)oc2cc(O[Si](C)(C)C(C)(C)C)ccc12`, the melting point was in the range of 150 to 151 °C.

Regarding `Oc1ccc2c(c1)OC(c1ccc(OCCN3CCCCC3)cc1)C1=C2COc2cc(O)ccc21` (stereo not drawn) [Compound 9, 5-[4-(2-Piperidin-1-yl-ethoxy)-phenyl]-5,11-dihydrochromeno[4,3-c]chromene-2,8-diol], the IC50 on hER-β turned out to be 0.084 µM; in data set [1], 0.0023 µM. The pEC50 in the data set on Ishikawa cells (Homo sapiens) and with MCF-7 cells (setting [2]) was less than 5.00 each time. Further, the pIC50 with Ishikawa cells (Homo sapiens) was 6.96; with MCF-7 cells (setting [3]), 6.11.

`O=c1oc2cc(F)ccc2c2c1-c1ccc(O)cc1OC2` [Compound 37, 8-Fluoro-2-hydroxy-11H-chromeno[4,3-c]chromen-5-one] yielded a melting point of 259 to 260 °C.

Consider `CN(C)c1ccc(C2Oc3cc(O)ccc3C3=C2c2ccc(O)cc2OC3)cc1` (stereo not drawn) [Compound 26, 5-[4-Dimethylamino-phenyl]-5,11-dihydro-chromeno[4,3-c]chromene-2,8-diol], for which the IC50 on hER-β was 0.02 µM; in data set [1] it was 0.014 µM. The results for the pEC50 with Ishikawa cells (Homo sapiens) and in the data set on MCF-7 cells (setting [2]) were less than 5.00 and 7.19, respectively. Besides, the negative-log IC50 (pIC50) in the data set on Ishikawa cells (Homo sapiens) is 6.74; with MCF-7 cells (setting [3]), less than 5.00.

Compound `CC(C)(C)[Si](C)(C)Oc1ccc2c(c1)OCc1c-2c(=O)oc2cc(F)ccc12` gave a melting point of 197 to 198 °C.

What is called pEC50 is the negative decadic logarithm of the EC50, by convention in mol/L. Lower therefore signals a high EC50. By pIC50 is commonly meant −log10 of the IC50, conventionally taken in molar units. A high value points to a small IC50. One may read the melting point as the temperature of the solid-liquid transition.

The record behind these values is patent publication US7105679B2, “Heteroatom containing tetracyclic derivatives as selective estrogen receptor modulators” (priority 2001, dated 2006).
